Reference: ChEMBL document CHEMBL1201862, “PubChem BioAssay data set” (2004)
Blank lines part the entries; values can stand above or below the compound they belong to. Activity calls are given as the source filed them.

Experiments:
A-375 [1] = assay: MITF: Counter assay: A375 proliferation Measured in Cell-Based System Using Plate Reader - 2084-03_Inhibitor_Dose_DryPowder_Activity. [Related pubchem assays (depositor defined):AID488944]; assay type: functional; details: Homo sapiens
[2] = target: Delta-type opioid receptor (Homo sapiens, UniProt P41143); assay: Counterscreen for agonists of heterodimerization of the mu 1 (OPRM1) and delta 1 (OPRD1) opioid receptors: Luminescence-based cell-based high throughput dose response assay to identify agonists of OPRD1 homodimerization. [Related pubchem assays (depositor defined):AID504326, AID504355, AID504692, AID504904, AID504905]; assay type: functional
Delta-type opioid receptor, sequence (P41143 whole entry): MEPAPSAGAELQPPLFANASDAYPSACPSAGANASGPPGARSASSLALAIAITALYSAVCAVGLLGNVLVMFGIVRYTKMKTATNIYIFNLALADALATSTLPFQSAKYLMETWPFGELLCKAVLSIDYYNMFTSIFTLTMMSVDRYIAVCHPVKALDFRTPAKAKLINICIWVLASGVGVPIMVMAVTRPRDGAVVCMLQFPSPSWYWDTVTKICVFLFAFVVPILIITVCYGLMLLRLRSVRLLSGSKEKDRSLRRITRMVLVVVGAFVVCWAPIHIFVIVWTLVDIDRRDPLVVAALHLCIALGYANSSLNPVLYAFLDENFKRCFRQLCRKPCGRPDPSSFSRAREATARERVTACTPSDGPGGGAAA

Mu-type opioid receptor = Mu-type opioid receptor (Homo sapiens, UniProt P35372); assay: Counterscreen for agonists of heterodimerization of the mu 1 (OPRM1) and delta 1 (OPRD1) opioid receptors: Luminescence-based cell-based high throughput dose response assay to identify agonists of OPRM1 homodimerization.; assay type: functional;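 also: U2OS cells expressing OPRM1 and beta-arrestin as split beta-galactosidase partners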
Mu-type opioid receptor, sequence (P35372 whole entry): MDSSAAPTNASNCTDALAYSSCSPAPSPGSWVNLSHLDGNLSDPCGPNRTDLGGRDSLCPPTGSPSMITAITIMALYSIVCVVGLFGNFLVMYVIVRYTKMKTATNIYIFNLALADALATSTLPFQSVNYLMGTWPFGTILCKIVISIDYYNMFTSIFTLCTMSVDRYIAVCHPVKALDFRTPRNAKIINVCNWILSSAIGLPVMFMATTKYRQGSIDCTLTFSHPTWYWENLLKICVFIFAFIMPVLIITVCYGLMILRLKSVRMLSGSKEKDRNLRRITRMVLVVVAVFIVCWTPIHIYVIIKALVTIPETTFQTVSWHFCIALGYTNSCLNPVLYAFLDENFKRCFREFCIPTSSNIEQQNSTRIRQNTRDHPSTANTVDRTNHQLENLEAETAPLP

[3] = target: 5-hydroxytryptamine receptor 5A (Homo sapiens, UniProt P47898); assay: Counterscreen for agonists of OPRM1-OPRD1 heterodimerization: luminescence-based cell-based high throughput dose response assay to identify agonists of 5-hydroxytryptamine (serotonin) 5A receptor (HTR5A). [Related pubchem assays (depositor defined):AID504326, AID504355, AID504692, AID504904, AID504905]; assay type: functional
5-hydroxytryptamine receptor 5A, sequence (P47898 whole entry): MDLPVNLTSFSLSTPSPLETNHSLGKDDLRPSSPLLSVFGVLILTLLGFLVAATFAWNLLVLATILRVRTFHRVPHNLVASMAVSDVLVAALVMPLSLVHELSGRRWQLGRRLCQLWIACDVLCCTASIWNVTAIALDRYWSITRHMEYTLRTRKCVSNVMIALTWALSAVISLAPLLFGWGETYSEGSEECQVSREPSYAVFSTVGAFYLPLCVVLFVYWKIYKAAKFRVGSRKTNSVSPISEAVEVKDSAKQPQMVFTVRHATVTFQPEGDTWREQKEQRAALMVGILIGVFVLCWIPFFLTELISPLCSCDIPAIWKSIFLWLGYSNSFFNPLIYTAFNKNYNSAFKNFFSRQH

Aminopeptidase N = target: T1, Aminopeptidase N (Plasmodium falciparum FcB1/Columbia, UniProt O96935); assay: P. falciparum M1AAP inhibitors, biochemical, fluorogenic H-Leu-NHMec substrate, 1536-well (AID 1445); set-up: species or system Plasmodium falciparum 3D7, 3D7
T1 sequence (O96935 whole entry): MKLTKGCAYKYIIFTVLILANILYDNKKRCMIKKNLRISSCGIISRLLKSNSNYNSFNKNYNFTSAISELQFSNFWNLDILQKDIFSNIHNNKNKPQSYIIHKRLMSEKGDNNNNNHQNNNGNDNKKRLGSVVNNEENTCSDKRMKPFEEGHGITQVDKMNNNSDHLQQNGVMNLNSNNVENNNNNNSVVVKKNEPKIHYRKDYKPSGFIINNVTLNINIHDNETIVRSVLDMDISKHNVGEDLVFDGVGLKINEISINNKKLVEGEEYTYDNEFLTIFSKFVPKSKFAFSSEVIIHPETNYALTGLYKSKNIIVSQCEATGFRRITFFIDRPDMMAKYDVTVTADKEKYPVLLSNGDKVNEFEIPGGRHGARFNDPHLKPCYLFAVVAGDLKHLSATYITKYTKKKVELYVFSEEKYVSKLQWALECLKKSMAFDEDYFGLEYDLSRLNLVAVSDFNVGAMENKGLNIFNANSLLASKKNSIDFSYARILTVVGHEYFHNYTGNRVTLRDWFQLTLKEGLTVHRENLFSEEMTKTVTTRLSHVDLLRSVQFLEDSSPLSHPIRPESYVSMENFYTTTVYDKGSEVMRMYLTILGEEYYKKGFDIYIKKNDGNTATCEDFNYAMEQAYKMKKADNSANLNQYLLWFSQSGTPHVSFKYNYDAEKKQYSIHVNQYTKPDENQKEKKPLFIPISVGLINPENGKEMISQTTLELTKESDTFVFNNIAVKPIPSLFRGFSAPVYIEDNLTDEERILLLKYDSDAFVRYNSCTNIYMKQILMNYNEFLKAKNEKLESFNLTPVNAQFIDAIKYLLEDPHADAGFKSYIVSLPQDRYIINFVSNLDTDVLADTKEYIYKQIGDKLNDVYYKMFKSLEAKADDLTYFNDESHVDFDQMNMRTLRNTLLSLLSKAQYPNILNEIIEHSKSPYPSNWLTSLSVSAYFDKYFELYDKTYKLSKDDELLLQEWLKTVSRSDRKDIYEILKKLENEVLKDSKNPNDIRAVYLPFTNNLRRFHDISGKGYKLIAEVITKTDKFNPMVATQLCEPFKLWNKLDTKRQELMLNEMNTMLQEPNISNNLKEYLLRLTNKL

CAAX prenyl protease 2 [4] = target: T2, CAAX prenyl protease 2 (Saccharomyces cerevisiae S288c, UniProt Q03530); assay type: biochemical
T2 sequence (Q03530 whole entry): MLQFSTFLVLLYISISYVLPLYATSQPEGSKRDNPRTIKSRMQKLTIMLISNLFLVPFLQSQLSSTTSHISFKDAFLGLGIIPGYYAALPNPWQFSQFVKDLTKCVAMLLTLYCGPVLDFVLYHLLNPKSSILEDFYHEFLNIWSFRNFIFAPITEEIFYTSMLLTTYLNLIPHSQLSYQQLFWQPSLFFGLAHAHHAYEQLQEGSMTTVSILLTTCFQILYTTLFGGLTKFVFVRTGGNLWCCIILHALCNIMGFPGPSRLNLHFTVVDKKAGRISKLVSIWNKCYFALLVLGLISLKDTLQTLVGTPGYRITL

CAAX prenyl protease 2 [5] = target: T3, CAAX prenyl protease 2 (Homo sapiens, UniProt Q9Y256); assay: human Rce1 protease inhibitors, dose response, biochemical, yeast membranes, quenched-peptide fluorescence, cherry-pick (AID 588849)
T3 sequence (Q9Y256 whole entry): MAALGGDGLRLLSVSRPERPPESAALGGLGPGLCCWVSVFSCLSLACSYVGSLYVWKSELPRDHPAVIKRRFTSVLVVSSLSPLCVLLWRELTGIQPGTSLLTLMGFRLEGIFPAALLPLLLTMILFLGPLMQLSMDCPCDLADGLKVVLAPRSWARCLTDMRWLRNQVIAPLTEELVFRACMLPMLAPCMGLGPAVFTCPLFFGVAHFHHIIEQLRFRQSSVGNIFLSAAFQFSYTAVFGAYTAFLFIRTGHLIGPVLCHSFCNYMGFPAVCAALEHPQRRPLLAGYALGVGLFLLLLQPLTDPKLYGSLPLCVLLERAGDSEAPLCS

A-375 [6] = assay: A375 melanoma cell viability reduction, dose response, counter-screen for MITF modulator project, cherry-pick samples, set 2 (AID 540335); assay type: functional, cell-based; details: Homo sapiens
[7] = NIH-3T3 fibroblast cytotoxicity, dose response, cytotoxicity control, cell-based, fluorescence, Alamar Blue, secondary assay (AID 2327); assay type: functional;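 also: NIH-3T3 mouse fibroblasts cultured with fluconazole at 8 µg/mL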
cells = assay type: functional, cell-based; details: HEK-CNG
[8] = target: T4, Microphthalmia-associated transcription factor (Homo sapiens, UniProt O75030); assay: TRPM1 promoter luciferase signal decrease, dose response, MITF inhibitor project, cell-based, SK-MEL-5, cherry-picked, set 3 (AID 493073); assay type: functional
T4 sequence (O75030 whole entry): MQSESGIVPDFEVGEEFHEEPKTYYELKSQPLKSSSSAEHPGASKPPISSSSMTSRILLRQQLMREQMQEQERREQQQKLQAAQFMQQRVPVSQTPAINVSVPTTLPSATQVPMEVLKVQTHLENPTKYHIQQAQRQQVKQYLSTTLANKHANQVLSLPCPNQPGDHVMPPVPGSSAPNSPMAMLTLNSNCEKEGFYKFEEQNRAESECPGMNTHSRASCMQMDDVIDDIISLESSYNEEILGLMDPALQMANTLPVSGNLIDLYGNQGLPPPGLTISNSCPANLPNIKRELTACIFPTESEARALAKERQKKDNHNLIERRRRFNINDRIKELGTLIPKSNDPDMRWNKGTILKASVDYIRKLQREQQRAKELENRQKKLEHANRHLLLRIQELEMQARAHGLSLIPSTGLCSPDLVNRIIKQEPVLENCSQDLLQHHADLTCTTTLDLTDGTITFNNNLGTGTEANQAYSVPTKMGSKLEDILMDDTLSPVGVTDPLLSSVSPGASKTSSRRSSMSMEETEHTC

Galanin receptor type 3 = target: T5, Galanin receptor type 3 (Homo sapiens, UniProt O60755); assay: Fluorescence-based cell-based primary high throughput dose response assay to identify antagonists of the Galanin Receptor 3 (GalR3).; assay type: functional
T5 sequence (O60755 whole entry): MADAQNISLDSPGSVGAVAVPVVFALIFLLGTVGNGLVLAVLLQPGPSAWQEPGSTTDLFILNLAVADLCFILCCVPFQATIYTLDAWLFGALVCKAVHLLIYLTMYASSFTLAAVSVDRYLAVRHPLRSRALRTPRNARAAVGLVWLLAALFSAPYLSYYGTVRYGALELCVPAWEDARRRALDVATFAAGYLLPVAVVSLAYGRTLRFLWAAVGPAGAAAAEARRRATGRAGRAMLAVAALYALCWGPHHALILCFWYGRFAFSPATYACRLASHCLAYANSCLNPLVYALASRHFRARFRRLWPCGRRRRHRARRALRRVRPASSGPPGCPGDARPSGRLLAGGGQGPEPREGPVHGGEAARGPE

[9] = C. albicans growth with fluconazole, confirmation, fluorescence, retest (AID 2467); assay type: functional, cell-based
[10] = target: T6, Short transient receptor potential channel 4 (Mus musculus, UniProt Q9QUQ5); assay: mouse TRPC4 channel activators, dose response, cell-based, HEK293 TRPC4/mu-opioid, Fluo-4 calcium (AID 434937); assay type: functional
T6 sequence (Q9QUQ5 whole entry): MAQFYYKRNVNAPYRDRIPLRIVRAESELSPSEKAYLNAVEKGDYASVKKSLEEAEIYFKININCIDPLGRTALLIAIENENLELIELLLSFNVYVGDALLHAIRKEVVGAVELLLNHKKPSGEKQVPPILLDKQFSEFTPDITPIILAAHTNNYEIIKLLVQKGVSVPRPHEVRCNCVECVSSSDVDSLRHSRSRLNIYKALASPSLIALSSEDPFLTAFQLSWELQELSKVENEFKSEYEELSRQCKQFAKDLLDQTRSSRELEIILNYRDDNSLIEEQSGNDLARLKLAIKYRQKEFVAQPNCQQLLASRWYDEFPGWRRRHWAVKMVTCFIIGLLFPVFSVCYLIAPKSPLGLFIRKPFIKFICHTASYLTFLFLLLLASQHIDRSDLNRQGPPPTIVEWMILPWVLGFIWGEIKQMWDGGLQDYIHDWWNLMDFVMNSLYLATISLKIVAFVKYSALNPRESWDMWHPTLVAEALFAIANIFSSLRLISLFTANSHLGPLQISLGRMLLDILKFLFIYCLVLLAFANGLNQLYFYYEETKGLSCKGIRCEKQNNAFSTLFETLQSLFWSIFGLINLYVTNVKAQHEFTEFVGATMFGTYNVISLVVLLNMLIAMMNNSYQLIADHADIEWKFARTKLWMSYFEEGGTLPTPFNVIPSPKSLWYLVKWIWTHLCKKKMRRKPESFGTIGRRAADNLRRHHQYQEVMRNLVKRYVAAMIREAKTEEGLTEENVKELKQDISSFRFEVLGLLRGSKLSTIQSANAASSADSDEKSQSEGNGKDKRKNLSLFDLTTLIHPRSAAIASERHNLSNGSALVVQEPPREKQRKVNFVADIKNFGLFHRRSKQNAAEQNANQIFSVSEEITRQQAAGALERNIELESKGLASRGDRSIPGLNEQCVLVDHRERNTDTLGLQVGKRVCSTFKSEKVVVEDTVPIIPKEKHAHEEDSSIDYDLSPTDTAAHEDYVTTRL

Trypsin = Trypsin (Sus scrofa, UniProt P00761); assay: porcine trypsin inhibitors, dose response, selectivity assay for Rce1 protease inhibitor project, biochemical, quenched peptide fluorescence, cherry-pick (AID 488789)
Trypsin, sequence (P00761 whole entry): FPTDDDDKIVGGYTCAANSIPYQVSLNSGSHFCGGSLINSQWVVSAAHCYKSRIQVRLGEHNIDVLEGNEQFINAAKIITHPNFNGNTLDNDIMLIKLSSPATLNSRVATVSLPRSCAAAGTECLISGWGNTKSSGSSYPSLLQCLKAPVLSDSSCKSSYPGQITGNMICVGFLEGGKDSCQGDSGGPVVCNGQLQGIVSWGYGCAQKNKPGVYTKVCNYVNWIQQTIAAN

Escherichia coli = assay: microbe, parasite or virus in culture
[11] = cytotoxicity in MIN6 insulinoma cells, dose response, cytotoxicity control, cell-based, mouse insulinoma (AID 2122); assay type: functional;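 also: confirmatory high-throughput counterscreen run to flag cytotoxic compounds; mouse MIN-6 beta cells carrying an insulin promoter eGFP reporter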
[12] = insulin promoter down-regulators in MIN6 cells, imaging, high-content screening, mouse beta cells (AID 1628); assay type: functional
INS1 = assay: beta cell apoptosis inhibitors, cytokine rescue, dose response, luminescence, retest (AID 449756); assay type: functional, cell-based; details: Rattus norvegicus;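 also: cell death triggered by IL-1 beta plus TNF-alpha plus IFN-gamma mixture; protective hits raise ATP signal compared with cytokine alone wells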

SMILES: COc1ccc(-c2nc3n(c2C)Cc2ccccc2-3)cc1
AC50 (A-375 [1]): 30.1 µM (active)

SMILES: CC(C)(C)c1ccc(-c2c[n+](-c3ccc(Br)cc3)c3n2CCCS3)cc1
AC50 (A-375 [6]): 34.1 µM (active)
EC50 [7]: > 160 µM (inactive)
EC50 (cells): > 29.9 µM (inactive)
AC50 [8]: 3.2 µM (active)
IC50 (Galanin receptor type 3): 10.1 µM (inactive)
EC50 [9]: 0.199 µM (active)

SMILES: CC(C)(C)c1ccc(C(=O)O)c(C(=O)c2ccc(C(=O)O)cc2)c1
AC50 (Escherichia coli): 49.3 µM (active)

SMILES: Cc1nn(Cc2ccccc2)c(C)c1C(=O)NCc1ccccc1
AC50 (Escherichia coli): 42.7 µM (active)

SMILES: CN(c1ccccc1)c1ccc(/C=N/NC(=O)CC#N)cc1
AC50 (CAAX prenyl protease 2 [4]): 6.98 µM (active)
AC50 (CAAX prenyl protease 2 [5]): 2.64 µM (active)
AC50 (Trypsin): 5.99 µM (active)

SMILES: COc1ccc(/C=N/NC(=O)c2[nH]c3ccc(Br)cc3c2-c2ccccc2)c(C(=O)O)c1OC
IC50 (Aminopeptidase N): 65.3 µM (active)

SMILES: Cn1cc(CNCc2ccc(OC(F)(F)F)cc2)c(-c2ccc3c(c2)OCCO3)n1
IC50 [11]: < 0.25 µM (active)
IC50 [12]: 0.272 µM (active)
AC50 (INS1): 1.04 µM (active)

The next lines start with the values.

EC50 [2]: > 92.5 µM (inactive)
EC50 (Mu-type opioid receptor): > 92.5 µM (inactive)
EC50 [3]: > 92.5 µM (inactive)
SMILES: O=C(Nc1ccccc1)c1ccc(NC2CCCCC2)c(S(=O)(=O)N2CCOCC2)c1

IC50 (Aminopeptidase N): 52.3 µM (active)
SMILES: CCOC(=O)c1c(NC(=O)CSc2ccccc2C(=O)O)sc(C)c1C

AC50 (CAAX prenyl protease 2 [4]): 7.99 µM (active)
AC50 (CAAX prenyl protease 2 [5]): 5.17 µM (active)
SMILES: CN(C)c1ccc(/C=N/NC(=O)CNC(=O)c2ccco2)cc1

EC50 [2]: > 92.5 µM (inactive)
EC50 (Mu-type opioid receptor): > 92.5 µM (inactive)
EC50 [3]: > 92.5 µM (inactive)
SMILES: CCOC(=O)C1(Cc2ccccc2)CCN(Cc2cccn2-c2nccs2)CC1

EC50 [2]: 31 µM (inactive)
EC50 (Mu-type opioid receptor): > 92.5 µM (inactive)
EC50 [3]: > 92.5 µM (inactive)
EC50 [10]: 0.0533 µM (active)
SMILES: CC(=O)NC(CC(=O)NCC(c1ccco1)N(C)C)c1ccccc1 (stereo unspecified)

AC50 (CAAX prenyl protease 2 [4]): 68 µM (active)
AC50 (Trypsin): 9.63 µM (active)
SMILES: CC1(c2ccncc2)Nc2ccccc2-c2nc3ccccc3n21 (stereo unspecified)
